Here are results for 23 compounds from patent US8609849B1, “Hydroxylated sulfamides exhibiting neuroprotective action and their method of use” (Fox Chase Chemical Diversity Center, Inc., priority 2010, dated 2013).

Test [1] concerns Hippocampal Cultures. The test is described as follows: Neuroprotection from hydrogen peroxide (oxidative stress), propidium iodide assay. It is filed as cell-based. The conditions noted are these: Rattus norvegicus, read-out: NP from HP PI EC50. From the text: (§1) Cell cultures: All compounds are screened with dissociated hippocampal cultures derived from embryonic day 18 rats as the primary test system. With this preparation, primary neurons are used to test for toxicity as well as neuroprotection in a highly relevant experimental system to epilepsy. In brief, hippocampal tissue are obtained commercially through Brain Bits (Springfield, Ill.) and cultures prepared as previously described by Brewer (Brewer, G. J. Serum-free B27/neurobasal medium supports differentiated growth of neurons from the striatum, substantia nigra, septum, cerebral cortex, cerebellum and dentate gyms, J. Neurosci. Res. 1995, 42, 674-683.). The hippocampal neurons are platted at low density (10,000 cell/well) in a 96-well format and maintained in serum-free medium consisting of Neurobasal Medium supplemented with B27 and GlutaMAX (Gibco). Pre-coated poly-L-lysine coated plates are used because of the preferential adherence and survival of hippocampal neurons on this matrix support.
(§2) Potent neuroprotection is the distinguishing characteristic that separates this program's anticonvulsants from all other commercial drugs for epilepsy. The experimental details and the rationale for the implemented assays are essential in differentiating these compounds from that of others. The central objective of all neuroprotective assays was their relevancy to excitotoxicity and oxidative stress related to epilepsy. Both the amount of glutamate and hydrogen peroxide used in the assays, as well as the time of treatment and duration of the experiment, were designed to be relevant to epilepsy. Further, all time parameters employed in these studies were empirically determined to be within the limits of reversible toxic events, yet using amounts of glutamate and hydrogen peroxide that were relevant to the disease. In regard to glutamate toxicity, a critical feature was the duration of treatment of the hippocampal neurons. The rational for using a short 5 min treatment with glutamate was based on the observation of Randall and Thayer (Randall, R. D.; Thayer, S. A. Glutamate-induced calcium transient triggers calcium overload and neurotoxicity in rat hippocampal neurons, J. Neurosci. 1992, 12, 1882-1895). […] The rationale is that this intense burst of glutamate and resulting calcium overload is relevant to seizures and therefore was important data to capture in the screening assay. The amount of glutamate (30 μM) employed in our screening was based on the basal levels of glutamate observed in microdialysis measurements of hippocampus from epileptogenic patients (Cavus et al. Decreased hippocampal volume on MRI is associated with increased extracellular glutamate in epilepsy patients, Epilepsia, 2008, 49, 1358-1366.). In regard to hydrogen peroxide, the amount employed (10 μM) was detected in the hippocampus of rats after kainate-induced status epilepticus (Jarrett et. al., Mitochondrial DNA damage and impaired base excision repair during epileptogenesis, Neurobiol. Dis. 2008, 30, 130-138). To produce neural damage and death with these amounts of glutamate and hydrogen peroxide, the cultures were changed to a medium with significant depletion of antioxidant components in the defined medium supplement B-27 just prior to treatment with the compounds. This was performed to obtain a significant and reproducible toxic signal in the hippocampal neurons and because loss of antioxidant control may be a component of epileptogenesis (Waldbaum and Patel, Mitochondria, oxidative stress and temporal lobe epilepsy, Epilepsy Res. 2010 88, 23-45.; Wu et al., Mitochondrial DNA mutation-elicited oxidative stress, oxidative damage, and altered gene expression in cultured cells of patients with MERRF syndrome, Mol. Neurobiol. 2010, 41, 256-266.). Neuroprotection studies with hydrogen peroxide were conducted with cultures that were between day 12 and day 18. Studies of neuroprotection glutamate were conducted between day 19 and day 22. […]

Test [2] deals with Hippocampal Cultures. The test can be described thus: Neuroprotection from glutamate (excitotoxicity), propidium iodide assay. Type of test: cell-based. Particulars: Rattus norvegicus, read-out: NP from Glutamate PI EC50.
From the text: as §1, §2

Test [3] concerns mice. The test can be described thus: Maximal Electroshock Test (anti-seizure test). Type of test: in vivo. From the text:
Seizure-related assays, Maximal electroshock test: The most definitive assay for antiseizure activity is the maximal electroshock (MES) test (Swinyard, E. A. Laboratory evaluation of antiepileptic drugs: review of laboratory methods, Epilepsia, 1969, 10, 107-119.). […] With both rodent assays, the duration of action is of high importance as well as the potency of the response.

Test [4] has as its system Hippocampal Cultures. The test can be described thus: Neuroprotection from glutamate (excitotoxicity), CFDA assay. It is filed as cell-based. The conditions noted are these: Rattus norvegicus, read-out: NP from Glutamate CFDA EC50.
From the text: as §1, §2

Test [5] has as its system Hippocampal Cultures. The test can be described thus: Neuroprotection from hydrogen peroxide (oxidative stress), CFDA assay. Type of test: cell-based. The conditions noted are these: Rattus norvegicus, read-out: NP from HP CFDA EC50.
From the text: as §1, §2

[6] abbreviates: 10 μM hydrogen peroxide, hippocampal cultures, propidium iodide (cell death).
Where [7] appears, read: 30 μM glutamate, hippocampal cultures, propidium iodide (cell death).
The mark [8] stands for this setting: 30 μM glutamate, hippocampal cultures, CFDA (neuronal viability).
[9] abbreviates: 10 μM hydrogen peroxide, hippocampal cultures, CFDA (neuronal viability).

In general, EC50 refers to the concentration giving half of the maximal effect. As for `NS(=O)(=O)NCCC(O)c1ccccc1Cl` (stereo not shown) [Example 1, 3-(2-Chloro-phenyl)-3-hydroxypropyl-1-sulfamide], the EC50 in test [1] (setting [6]) came out at 1 µM; in test [2] (setting [7]), 0.1 µM; in test [4] (setting [8]), 0.1 µM; in test [5] (setting [9]), 30 µM. In addition, the “MES Duration” value in test [3] (no dose given) came out at 2 h.

`NS(=O)(=O)NCCC(O)c1csc2ccccc12` (stereo not shown) [Example 2, 3-Benzo[b]thiophen-3-yl-3-hydroxypropyl-1-sulfamide]: the EC50 in test [1] stood at 30 µM; in test [2], 3 µM; in test [4], 100 µM; in test [5] it was 3 µM.

Consider `CC(O)(CCNS(N)(=O)=O)c1ccccc1Cl` (stereo not shown) [Example 3, 3-(2-Chloro-phenyl)-3-hydroxybutanyl-1-sulfamide], for which the EC50 was more than 300 µM in test [1], more than 300 µM in test [2], more than 300 µM in test [4] and 300 µM in test [5].

Regarding `CC(C)(CNS(N)(=O)=O)C(O)c1ccccc1F` (stereo not shown) [Example 5, 3-(2-Fluoro-phenyl)-3-hydroxy-2,2-dimethylpropyl-1-sulfamide], the EC50 in test [1] is more than 300 µM; in test [2], 0.1 µM; in test [4], 0.1 µM; in test [5], more than 300 µM.

Take `NS(=O)(=O)NCCC(O)c1ccccc1F` (stereo not shown) [Example 6, 3-(2-Fluoro-phenyl)-3-hydroxypropyl-1-sulfamide]: the EC50 in test [1] (setting [6]) was 0.01 µM; in test [2] (setting [7]), 0.1 µM; in test [4] (setting [8]), 1 µM; in test [5] (setting [9]), 0.01 µM. Also, in test [3] (at 100 mg/kg), the “MES Duration” value is 4 hr at 100 mg/kg.

Turning to `NS(=O)(=O)NCCC(O)c1cc(F)ccc1F` (stereo not shown) [Example 7, 3-(2,5-Difluoro-phenyl)-3-hydroxypropyl-1-sulfamide], the EC50 in test [1] was determined as 0.001 µM; in test [2] it was 3 µM; in test [4], 30 µM; in test [5], 0.01 µM.

In the case of `NS(=O)(=O)NCCC(O)c1ccc(F)cc1Cl` (stereo not shown) [Example 8, N-[3-(2-Chloro-4-fluoro-phenyl)-3-hydroxy-propyl]-sulfamide], the EC50 was more than 300 µM in test [1] (setting [6]), 10 µM in test [2] (setting [7]), more than 300 µM in test [4] (setting [8]) and more than 300 µM in test [5] (setting [9]).

Consider `NS(=O)(=O)NCCC(O)c1ccccc1` (stereo not shown) [Example 9, N-(3-phenyl-3-hydroxy-propyl)-sulfamide], for which the EC50 in test [1] (setting [6]) was more than 300 µM; in test [2] (setting [7]) it was more than 300 µM; in test [4] (setting [8]), 300 µM; in test [5] (setting [9]), more than 300 µM.

In the case of `CC(O)(CCNS(N)(=O)=O)c1ccccc1F` (stereo not shown) [Example 10, N-[3-(2-Fluoro-phenyl)-3-hydroxy-butyl]-sulfamide], the EC50 in test [1] (setting [6]) was 300 µM; in test [2] (setting [7]), 10 µM; in test [4] (setting [8]) it was 10 µM; in test [5] (setting [9]) it was 0.1 µM.

On to `Cc1ccccc1C(O)CCNS(N)(=O)=O` (stereo not shown) [Example 11, 3-(2-Methyl-phenyl)-3-hydroxypropyl-1-sulfamide], for which the EC50 in test [2] (setting [7]) and in test [4] (setting [8]) was more than 300 µM throughout.

Take `CCc1ccccc1C(O)CCNS(N)(=O)=O` (stereo not shown) [Example 12, 3-(2-Ethyl-phenyl)-3-hydroxypropyl-1-sulfamide]: the EC50 is 0.01 µM in test [1] (setting [6]), 10 µM in test [2] (setting [7]), 0.01 µM in test [4] (setting [8]) and more than 300 µM in test [5] (setting [9]).

Regarding `NS(=O)(=O)NCCC(O)c1ccccc1Br` (stereo not shown) [Example 13, 3-(2-bromo-phenyl)-3-hydroxypropyl-1-sulfamide], the EC50 in test [1] (setting [6]) turned out to be 10 µM; in test [2] (setting [7]) it was 100 µM; in test [4] (setting [8]) it was 10 µM; in test [5] (setting [9]), 300 µM.

Consider `COc1ccccc1C(O)CCNS(N)(=O)=O` (stereo not shown) [Example 14, 3-(2-methoxy-phenyl)-3-hydroxypropyl-1-sulfamide], for which the EC50 in test [1] was 0.01 µM; in test [2], 0.1 µM; in test [4], 0.01 µM; in test [5] it was 10 µM.

Regarding `NS(=O)(=O)NCC[C@H](O)c1ccccc1F` [Example 15, (S)-3-(2-Fluoro-phenyl)-3-hydroxypropyl-1-sulfamide], the EC50 was determined as 0.001 µM in test [1], 0.01 µM in test [2], 0.01 µM in test [4] and 0.001 µM in test [5]. Also, in test [3] (at 100 mg/kg), the “MES Duration” value is listed as 4 hrs at 100 mg/kg.

For `NS(=O)(=O)NCC[C@@H](O)c1ccccc1F` [Example 16, (R)-3-(2-Fluoro-phenyl)-3-hydroxypropyl-1-sulfamide], the EC50 in test [1] and in test [5] was more than 300 µM each time.

Consider `NS(=O)(=O)NCC[C@@H](O)c1ccccc1Cl` [Example 17, (R)-3-(2-Chloro-phenyl)-3-hydroxypropyl-1-sulfamide], for which the EC50 in test [1] (setting [6]) and in test [5] (setting [9]) was more than 300 µM each time.

As to `NS(=O)(=O)NCC[C@H](O)c1ccccc1Cl` [Example 18, (S)-3-(2-Chloro-phenyl)-3-hydroxypropyl-1-sulfamide], the EC50 in test [1] (setting [6]) came to 0.001 µM; in test [2] (setting [7]) it was 0.1 µM; in test [4] (setting [8]) it was 1 µM; in test [5] (setting [9]), 0.001 µM.

As to `NS(=O)(=O)N1CCC(O)(c2ccccc2F)CC1` [Example 19, 4-(2-Fluorophenyl)-4-hydroxypiperidine-1-sulfonamide], the EC50 was 1 µM in test [1] (setting [6]), 0.001 µM in test [2] (setting [7]), 1 µM in test [4] (setting [8]) and 1 µM in test [5] (setting [9]). Also, the “MES Duration” value in test [3] (at 100 mg/kg) turned out to be 6 hrs at 100 mg/kg.

In the case of `NS(=O)(=O)NCCC(O)c1ccccc1C(F)(F)F` (stereo not shown) [Example 20, 3-(2-Trifluoromethyl-phenyl)-3-hydroxypropyl-1-sulfamide], the EC50 in test [2] and in test [4] was more than 300 µM in each case.

Take `NS(=O)(=O)NCCC(O)c1ccccc1[N+](=O)[O-]` (stereo not shown) [Example 21, 3-(2-Nitro-phenyl)-3-hydroxypropyl-1-sulfamide]: the results for the EC50 in test [2] and in test [4] were 10 µM and more than 300 µM, respectively.

For the compound `NS(=O)(=O)NCCC(O)c1c(F)cccc1F` (stereo not shown) [Example 22, 3-(2,6-Difluoro-phenyl)-3-hydroxypropyl-1-sulfamide], the EC50 in test [1] amounted to 0.01 µM; in test [2], 300 µM; in test [4], 100 µM; in test [5], 1 µM.

Consider `NS(=O)(=O)NCCC(O)c1ccccc1-c1ccccc1` (stereo not shown) [Example 23, 3-(2-Phenyl-phenyl)-3-hydroxypropyl-1-sulfamide], for which the EC50 was 300 µM in test [2] (setting [7]) and 10 µM in test [4] (setting [8]).

Regarding `NS(=O)(=O)NCCC(O)c1ccccc1-c1cncc(Cl)c1` (stereo not shown) [Example 24, 3-[2-(5-Chloro-pyridine-3-yl)-phenyl]-3-hydroxypropyl-1-sulfamide], the EC50 was more than 300 µM in test [2] (setting [7]) and 10 µM in test [4] (setting [8]).
